Data on 34 molecules can be found in patent publication US6951848B2, “Functionalized heterocycles as modulators of chemokine receptor function and methods of use therefor” (Millennium Pharmaceuticals, Inc.,, priority 2001, dated 2005).

Counter-ions that a name gives are not always drawn.

The target of one data set is T1, CCR-5 (Homo sapiens, UniProt P51681).
T1 construct: expressed in transfected cells; host or cells: L1.2 cells (CCR-5/L1.2 transfectants), membranes
T1 sequence (P51681 whole entry): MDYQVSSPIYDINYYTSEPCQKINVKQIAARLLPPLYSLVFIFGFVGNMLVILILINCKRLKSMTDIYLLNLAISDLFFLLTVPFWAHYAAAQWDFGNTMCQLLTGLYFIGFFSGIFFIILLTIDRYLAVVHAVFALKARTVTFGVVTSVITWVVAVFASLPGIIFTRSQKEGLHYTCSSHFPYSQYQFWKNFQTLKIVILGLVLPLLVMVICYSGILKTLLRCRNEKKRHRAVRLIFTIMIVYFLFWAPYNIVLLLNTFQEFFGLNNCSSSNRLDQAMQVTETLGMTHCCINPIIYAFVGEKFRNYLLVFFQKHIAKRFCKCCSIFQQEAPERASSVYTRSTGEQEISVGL
The data set can be described thus: 125I-gp120/sCD4/CCR-5 receptor binding assay. As to conditions: membranes from CCR-5/L 1.2 cells, 3 nM sCD4, 0.1 nM 125I-gp120 (HIV-1 JR-FL); read-out: IC50 for inhibition of binding of sCD-4/GP-120 to CCR-5. The method, then:
CCR-5 Receptor Binding Assay The compounds of the present invention were evaluated using the following CCR-5 receptor binding assay. The ^125I-gp120/sCD4/CCR-5 binding assay was carried out similarly as described in Wu et al., Nature, 1996;384:179-183. Briefly, the envelope gp120 protein derived from HIV-1 JR-FL (Trkola et al., Nature, 1996;384:184-186), an M-tropic strain, was iodinated using solid phase lactoperoxidase to a specific activity of 20 μCi/μg. For each binding reaction (in a final volume of 100 μL binding buffer [50 mM HEPES, pH 7.5, 1 mM CaCl2, 5 mM MgCl2, and 0.5% BSA]), 25 μL (2.5 μg) of membranes prepared from CCR-5/L 1.2 cells were mixed with 25 μL (3 nM) sCD4, followed by 25 μL (0.1 nM) radio-labeled gp120 in the presence or absence of 25 μL compound dissolved in DMSO (final concentration of DMSO 0.5%). The reactions were incubated at room temperature for 45 to 60 minutes and stopped by transferring the mixture to GFB filter plates, which were then washed 3 to 4 times with binding buffer containing 0.5 M NaCl. The plates were dried and MicroScint scintillation fluid was added before counting. […] The compounds of Examples 56 and 66 had IC50s of about […]. […] Preferred compounds can inhibit the binding of sCD-4/GP-120 to CCR-5 with IC50s of about 10 μM to about 100 μM or about 1 nM to about 10 μM
On to `Cc1[nH]c2ccc(OCCN3CCC(c4ccccc4)C3)cc2c1C(=O)OCc1ccccc1.Cl` (stereo not shown) [Example 5, 1-[2-(3-benzyloxycarbonyl-2-methyl-1H-indol-5-yloxy)-ethyl]-3-phenyl-pyrrolidinium; Chloride], for which the IC50 was 18 µM.
For the molecule `CCN(CC)CCOc1ccc2c(c1)c(C(=O)OCc1ccccc1)c(C)n2Cc1ccccc1` [Example 7, 1-Benzyl-5-(2-diethylamino-ethoxy)-2-methyl-1H-indole-3-carboxylic acid benzyl ester], the IC50 was 18.2 µM.
As for `Cc1[nH]c2ccc(NCCN3CCCC3)cc2c1C(=O)OCc1ccccc1` [Example 20, 2-Methyl-5-(2-pyrrolidine-1-yl-ethylamino)-1H-indole-3-carboxylic acid benzyl ester], the IC50 is 17.5 µM.
`Cc1[nH]c2ccc(CCN3CCCC3)cc2c1C(=O)OCc1ccccc1.Cl` [Example 56, 2-Methyl-5-(2-pyrrolidin-1-yl-ethyl)-1H-indole-3-carboxylic acid benzyl ester hydrochloride]: the IC50 is about 4.8 µM.
For `Cc1[nH]c2ccc(CCN(C)C3CCOCC3)cc2c1C(=O)OCc1ccccc1` [Example 62, 2-Methyl-5-{2-[methyl-(tetrahydro-pyran-4-yl)-amino]-ethyl}-1H-indole-3-carboxylic acid benzyl ester], the IC50 came to 13.9 ± 1.6 µM.
For the molecule `Cc1[nH]c2ccc(OCCN(C)C)cc2c1C(=O)O[C@@H](C)c1ccccc1` [Example 66, 5-(2-Dimethylamino-ethoxy)-2-methyl-1H-indole-3-carboxylic acid (S)-1-phenyl-ethyl ester], the IC50 is about 4.8 µM.
Take `Cc1[nH]c2ccc(OCCN3CCCC3)cc2c1C(=O)OCc1ccccc1` [Example 69, 2-Methyl-5-(pyrrolidin-1-yl-ethoxy)-1H-indole-3-carboxylic acid benzyl ester]: the IC50 was 20.3 ± 2.8 µM.

Tested on in the next data set: not given
Assay: not given
Conditions: not given
Consider `Cc1[nH]c2ccc(CN)cc2c1C(=O)OCc1ccccc1.Cl`, for which the melting point – broadly, the temperature, or range, at which the solid turns liquid – fell in the range of 260 to 261 °C.
In turn, `CCN(CC)CCc1ccc2[nH]c(C)c(C(=O)O[C@@H](C)c3ccccc3)c2c1.Cl` registered a melting point of 95 to 97 °C.
Molecule `Cc1[nH]c2ccc(OCCN3CCOCC3)cc2c1C(=O)OC(C)c1ccccc1.Cl` (stereo not shown) registered a melting point of 45 to 55 °C.
Molecule `Cc1[nH]c2ccc(OCCN3CCCC3)cc2c1C(=O)OC(C)c1ccccc1.Cl` (stereo not shown) displayed a melting point of 75 to 80 °C.
Same read-out and setting: then `Cc1[nH]c2ccc(OCCN3CCNCC3)cc2c1C(=O)OCc1ccccc1` (as salt: hydrochloride) [Example 2, 1-[2-(3-benzyloxycarbonyl-2-methyl-1H-indole-5-yloxy)-ethyl]-piperazin-1-ium; Chloride], with 225 to 229 °C (dec.); and `Cc1[nH]c2ccc(OCCN3CCN(C(=O)OC(C)(C)C)CC3)cc2c1C(=O)OCc1ccccc1` [Example 1, 5-[2-(4-tert-Butoxycarbonyl-piperazin-1-yl)-ethoxy]-2-methyl-1H-indole-3-carboxylic acid benzyl ester], with 136 to 137 °C; and `Cc1[nH]c2ccc(OCCN3CCN(C)CC3)cc2c1C(=O)OCc1ccccc1` [Example 3, 2-Methyl-5-[2-(4-methyl-piperazin-1-yl)-ethoxy]-1H-indole-3-carboxylic acid benzyl ester], with 143 to 145 °C.
The molecule `Cc1[nH]c2ccc(OCCN3CCC(C)C3)cc2c1C(=O)OCc1ccccc1` (stereo not shown) [Example 4, 2-Methyl-5-[2-(3-methyl-pyrrolidin-1-yl)-ethoxy]-1H-indole-3-carboxylic acid benzyl ester] came in with a melting point of 121 to 122 °C.
Same read-out and setting: then `Cc1[nH]c2ccc(OCCN3CCC(c4ccccc4)C3)cc2c1C(=O)OCc1ccccc1.Cl` (stereo not shown) [Example 5, 1-[2-(3-benzyloxycarbonyl-2-methyl-1H-indol-5-yloxy)-ethyl]-3-phenyl-pyrrolidinium; Chloride], with 118 to 121 °C; and `Cc1[nH]c2ccc(OCCN(C(C)C)C(C)C)cc2c1C(=O)OCc1ccccc1` [Example 6, 5-(2-Diisopropylamino-ethoxy)-2-methyl-1H-indole-3-carboxylic acid benzyl ester], with 121 to 123 °C; and `CCN(CC)CCOc1ccc2c(c1)c(C(=O)OCc1ccccc1)c(C)n2Cc1ccccc1` [Example 7, 1-Benzyl-5-(2-diethylamino-ethoxy)-2-methyl-1H-indole-3-carboxylic acid benzyl ester], with 74 to 76 °C.
For `CCN(CC)CCOc1ccc2c(c1)c(C(=O)OCc1ccccc1)c(C)n2C` [Example 8, 1-Methyl-5-(2-diethylamino-ethoxy)-2-methyl-1H-indole-3-carboxylic acid benzyl ester], the melting point was 73 to 74 °C.
As for `CCC(Oc1ccc2[nH]c(C)c(C(=O)OCc3ccccc3)c2c1)C(=O)N(CC)CC` (stereo not shown) [Example 9, 5-(1-Diethylcarbamoyl-propoxy)-2-methyl-1H-indole-3-carboxylic acid benzyl ester], the melting point fell in the range of 129 to 131 °C.
In the case of `Cc1[nH]c2ccc(OCCCCN3CCCC3)cc2c1C(=O)OCc1ccccc1` [Example 10, 2-Methyl-5-(4-pyrrolidin-1-yl-butoxy)-1H-indole-3-carboxylic acid benzyl ester], the melting point was 152 to 155 °C.
Consider `Cc1[nH]c2ccc(OCCN3CCCCCC3)cc2c1C(=O)OCc1ccccc1` [Example 11, 5-(2-Azepan-1-yl-ethoxy)-2-methyl-1H-indole-3-carboxylic acid benzyl ester], for which the melting point lay within 141 to 142 °C.
In the case of `Cc1[nH]c2ccc(OCCN3CCCCC3)cc2c1C(=O)OCc1ccccc1` [Example 12, 2-Methyl-5-(2-piperidin-1-yl-ethoxy)-1H-indole-3-carboxylic acid benzyl ester], the melting point was 140 to 141 °C.
For `CCN(CC)CCOc1ccc2[nH]c(C)c(C(=O)OCc3ccccc3)c2c1` [Example 13, 5-(2-Diethylamino-ethoxy)-2-methyl-1H-indole-3-carboxylic acid benzyl ester], the melting point is 125 to 126 °C.
`Cc1[nH]c2ccc(OCCN3CC(C)(C)C(C)(C)C3)cc2c1C(=O)OCc1ccccc1` [Example 14, 2-Methyl-5-[2-(3,3,4,4-tetramethyl-pyrrolidin-1-yl)-ethoxy]-1H-indole-3-carboxylic acid benzyl ester] yielded a melting point of 181 to 182 °C.
`Cc1[nH]c2ccc(OCCN3CCCC3c3ccccc3)cc2c1C(=O)OCc1ccccc1` (stereo not shown) [Example 15, 2-Methyl-5-[2-(2-phenyl-pyrrolidin-1-yl)-ethoxy]-1H -indole-3-carboxylic acid benzyl ester] registered a melting point of 141 to 142 °C.
Regarding `Cc1[nH]c2ccc(OCCN3CC[C@H](CO)C3)cc2c1C(=O)OCc1ccccc1` [Example 16, 5-[2-((S)-3-Hydroxymethyl-pyrrolidin-1-yl)-ethoxy]-2-methyl-1H -indole-3-carboxylic acid benzyl ester], the melting point was in the range of 126 to 127 °C.
Molecule `Cc1[nH]c2ccc(OCCN3CCCC3c3cccnc3)cc2c1C(=O)OCc1ccccc1` (stereo not shown) [Example 17, 2-Methyl-5-[2-(2-pyridin-3-yl-pyrrolidin-1-yl)-ethoxy]-1H-indole-3-carboxylic acid benzyl ester] came in with a melting point of 126 to 127 °C.
`CCCN(CCC)CCOc1ccc2[nH]c(C)c(C(=O)OCc3ccccc3)c2c1` [Example 18, 5-(2-Dipropylamino-ethoxy)-2-methyl-1H-indole-3-carboxylic acid benzyl ester]: the melting point was in the range of 123 to 125 °C.
Molecule `Cc1[nH]c2ccc(CCN3CCCC3)cc2c1C(=O)OCc1ccccc1.Cl` [Example 56, 2-Methyl-5-(2-pyrrolidin-1-yl-ethyl)-1H-indole-3-carboxylic acid benzyl ester hydrochloride] showed a melting point of 76 to 78 °C.
As to `Cc1[nH]c2ccc(CCN3CCN(C)CC3)cc2c1C(=O)OCc1ccccc1` [Example 57, 2-Methyl-5-[2-(4-methyl-piperazin-1-yl)-ethyl]-1H-indole-3-carboxylic acid benzyl ester], the melting point fell in the range of 167 to 168 °C.
On to `Cc1[nH]c2ccc(CCN(C)C3CCCCC3)cc2c1C(=O)OCc1ccccc1` [Example 58, 5-[2-(Cyclohexyl-methyl-amino)-ethyl]-2-methyl-1H-indole-3-carboxylic acid benzyl ester], for which the melting point was in the range of 122 to 124 °C.
`Cc1[nH]c2ccc(CCN3CCCCC3)cc2c1C(=O)OCc1ccccc1` [Example 59, 2-Methyl-5-(2-piperidin-1-yl-ethyl)-1H-indole-3-carboxylic acid benzyl ester] gave a melting point of 159 to 161 °C.
For the molecule `Cc1[nH]c2ccc(CCN(CC(C)C)CC(C)C)cc2c1C(=O)OCc1ccccc1` [Example 60, 5-(2-Diisobutylamino-ethyl)-2-methyl-1H-indole-3-carboxylic acid benzyl ester], the melting point is 134 to 135 °C.
`CNCCc1ccc2[nH]c(C)c(C(=O)OCc3ccccc3)c2c1` [Example 61, 2-Methyl-5-(2-methylamino-ethyl)-1H-indole-3-carboxylic acid benzyl ester] showed a melting point of 65 to 68 °C.
With `Cc1[nH]c2ccc(CCN(C)C3CCOCC3)cc2c1C(=O)OCc1ccccc1` [Example 62, 2-Methyl-5-{2-[methyl-(tetrahydro-pyran-4-yl)-amino]-ethyl}-1H-indole-3-carboxylic acid benzyl ester], the melting point is 109 to 111 °C.
The molecule `CCN(CC)Cc1ccc2[nH]c(C)c(C(=O)OCc3ccccc3)c2c1` [Example 64, 5-Diethylaminomethyl-2-methyl-1H-indole-3-carboxylic acid benzyl ester] registered a melting point of 106 to 108 °C.
With `Cc1[nH]c2ccc(OCCN(C)C)cc2c1C(=O)O[C@@H](C)c1ccccc1` [Example 66, 5-(2-Dimethylamino-ethoxy)-2-methyl-1H-indole-3-carboxylic acid (S)-1-phenyl-ethyl ester], the melting point was 135 to 140 °C.
`Cc1[nH]c2ccc(OCCN3CCCC3)cc2c1C(=O)OCc1ccccc1` [Example 69, 2-Methyl-5-(pyrrolidin-1-yl-ethoxy)-1H-indole-3-carboxylic acid benzyl ester] returned a melting point of 110 to 116 °C.
On the same count and under the same terms, in the case of `Cc1[nH]c2ccc(CCNC3CCCCC3)cc2c1C(=O)OCc1ccccc1` [Example 71, 5-(2-Cyclohexylamino-ethyl)-2-methyl-1H-indole-3-carboxylic acid benzyl ester] it was 97 to 100 °C.
